These results are taken from PubChem BioAssay AID1996.

SMILES strings stand for the structures. Values after ≈ are worked out from the molar mass of the structure shown. Where only a bound is given, the exact number is not on record here.

For the series the following is noted: buffer; pH 7.4; 200.0 µM.
On to `CC(=O)Nc1ccc(S(=O)(=O)Nc2ccn(Cc3ccccc3Cl)n2)cc1`, for which the kinetic solubility was more than 60.7 µg/mL.
With `COc1ccc(S(=O)(=O)n2ccnc2C)c(C)c1C` the figure was more than 42.1 µg/mL; with `Cc1cccc(CNS(=O)(=O)c2csc(C(N)=O)c2)c1`, more than 46.6 µg/mL; with `C#CCOc1nc2c(c(=O)n(C)c(=O)n2C)n1Cc1ccccc1`, 8.9 µg/mL (≈ 27.4 µM).
With `COC(=O)C1=C(C)NC(=O)NC1c1ccc2ccccc2c1` (stereo not given) the figure was less than 0.3 µg/mL; with `O=C(Nc1cccc2ccccc12)NC1Cc2ccccc2C1`, less than 0.3 µg/mL; with `Cc1cc(NC(=O)c2cccc(S(=O)(=O)Nc3cccc(C(=O)O)c3)c2)no1`, more than 60.2 µg/mL.
With `O=C(NC1CCCC1)c1cc(-c2ccccc2O)on1` the figure was 2.2 µg/mL (≈ 8.08 µM); with `O=C(COC(=O)c1cc[n+]([O-])cc1)Nc1ccc([N+](=O)[O-])cc1`, more than 47.6 µg/mL.
`Cc1ccc(S(=O)(=O)CCc2ccncc2)cc1` returned a kinetic solubility of more than 39.2 µg/mL.
With `Cl.O=C(c1cc2c(s1)CCCC2)N1CCN(CCO)CC1` the figure was more than 49.6 µg/mL.
As for `COc1cc(Cl)c(C)cc1NC(=O)CCN1C(=O)NC(C)(C)C1=O`, the kinetic solubility is more than 53.1 µg/mL.
With `CCOC(=O)C1=C(C)NC(C)=C(C(=O)OCC)C1C(=O)OCC(=O)N1CCC(C)CC1` the figure was 15.9 µg/mL (≈ 36.4 µM).
`CN(C)S(=O)(=O)c1cccc(COc2cccnc2[N+](=O)[O-])c1`: the solubility (kinetic) came out at 12.1 µg/mL (≈ 35.9 µM).
With `O=C(COC(=O)c1cccc2ccccc12)NCC1CCCO1` (stereo not given) the figure was more than 47 µg/mL.
With `COCc1c(C(=O)OCC(=O)Nc2ccc(OC(F)F)cc2)oc2ccccc12` the figure was 13.4 µg/mL (≈ 33.1 µM).
With `Cc1cccc[n+]1CC(=O)c1ccccc1.[Br-]` the figure was more than 43.8 µg/mL.
Turning to `O=C(O)CCSC1CC(=O)N(c2ccccc2)C1=O` (stereo not given), the kinetic solubility is more than 41.9 µg/mL.
Take `Cc1cc(OC2CCCCC2)nc(NCc2ccccc2)n1`: the kinetic solubility turned out to be 0.3 µg/mL (≈ 1.01 µM).
As for `Cc1nc2ccc(Cl)cc2c(=O)n1-c1ccc([N+](=O)[O-])cc1`, the kinetic solubility was 3.7 µg/mL (≈ 11.7 µM).
With `Cc1ccc(S(=O)(=O)N(Cc2ccccc2)C(C)C)cc1` the figure was 5 µg/mL (≈ 16.5 µM); with `CC(CCc1ccccc1)NC(=O)c1ccc(F)cc1` (stereo not given), 33.6 µg/mL (≈ 124 µM).
With `Cc1ccc(NC(=O)C(C)OC(=O)CCC2CCCCC2)cc1` (stereo not given) the figure was 4.1 µg/mL (≈ 12.9 µM); with `Cc1ccc(C)c(-c2csc(-c3cccnc3)n2)c1`, 9.9 µg/mL (≈ 37.2 µM).
On to `Cc1cc(Cl)n2c(nc3cc(F)c(F)cc32)c1C#N`, for which the solubility (kinetic) is 4.7 µg/mL (≈ 16.9 µM).
With `O=C(Nc1nccs1)c1ccc([N+](=O)[O-])cc1Cl` the figure was 3.8 µg/mL (≈ 13.4 µM); with `O=C(NCCCc1ccccc1)C(=O)c1c[nH]c2ccccc12`, 1.2 µg/mL (≈ 3.92 µM).
Compound `Cc1ccc(C(=O)O)cc1NC(=S)NCCc1ccccc1` gave a kinetic solubility of more than 47.2 µg/mL.
With `CC(=O)c1ccc(NC(=O)CSc2nccn2C)cc1` the figure was more than 43.4 µg/mL; with `COCCNc1ccc(N2C(=O)C3CCCCC3C2=O)cc1[N+](=O)[O-]` (stereo not given), 50.8 µg/mL (≈ 146 µM); with `Cc1ccc(NC(=O)CNC(=O)OCc2ccccc2)cc1C`, 10.3 µg/mL (≈ 33 µM).
With `O=C(Cn1cc(C(F)(F)F)ccc1=O)NC1CCCC1` the figure was more than 43.2 µg/mL.
With `COC(=O)[C@H](CCSC)NC(=O)NC1CC1` the figure was more than 36.9 µg/mL.
Compound `Cc1ccc(C(=O)O/N=C(\N)Cc2cccs2)cc1[N+](=O)[O-]` registered a solubility (kinetic) of 39.9 µg/mL (≈ 125 µM).
With `Cc1cc(=O)oc2cc(OCCSCCN3CCCCC3)ccc12` the figure was more than 52.1 µg/mL; with `O=[N+]([O-])c1cccc2c(S(=O)(=O)N3CCOCC3)cccc12`, 35.4 µg/mL (≈ 110 µM).
Turning to `CSc1ncc(-c2ccc(Cl)cc2)[nH]1`, the solubility (kinetic) is 29.3 µg/mL (≈ 130 µM).
With `Cc1cc(C)cc(OCC(=O)Nc2cnn(CCCC(=O)O)c2)c1` the figure was more than 49.7 µg/mL.
With `Cc1ccccc1NC(=O)C(NC1CCCCC1)C(C)C` (stereo not given) the figure was 6.7 µg/mL (≈ 23.2 µM); with `Cc1cc(S(=O)(=O)c2ccc([N+](=O)[O-])cn2)ccc1Br`, 1.7 µg/mL (≈ 4.76 µM).

Broadly, the solubility (kinetic) is the concentration staying in solution when a stock, usually in DMSO, is diluted into the medium.
